Like-named read-outs stand apart in the source and are kept apart here.
Legend:
[1] = test system: HUVECs; test: HUVEC morphology, phase-contrast microscopy; assay type: cell-based, human; conditions: 24 h incubation
Experimental: (§1) As a third in vitro toxicity study in the human blood circulation system, the effects of FA, D1, and D2 on the viability of human umbilical vein endothelial cells (HUVECs; RRID CVCL_2959; Lonza, Italy; Cat. no. CC-2517) were determined using the WST-1 assay (Takara, Takara Bio Europe, Europe, Saint-Germain-en-Laye, France), according to the previously published protocol.[32] Briefly, the cells were cultured according to the manufacturer’s guidelines with the following ingredients: EGM-2-medium + bullet kit (Lonza, Clonetics, Italy), accutase (Sigma-Aldrich, Germany), and HEPES-buffered saline solution (Lonza, Basel, Switzerland). For the assay, the cells were seeded at the density of 7 500 HUVECs per well on 96-well plates and cultured for 24 h to obtain 70% confluency. Subsequently, the cells were treated with studied compounds in multiplicate (n = 6–8) at the concentration of 0.1–100 μM in the growth medium for 24 h (37 °C, 5% CO2). Cells with untreated growth medium represented 100% viability, whereas cells treated with medium containing 0.5% (v/v) methanol served as a negative control for drug solvent. After treating cells for 24 h, medium was removed, the cells were washed with the culture medium (100 μl/well), and 100 μL of WST-1 reagent dissolved in culture medium was added into each well. The plates were incubated at 37 °C with 5% CO2 for 2 h, after which absorbance values were measured at the 450 nm wavelength using a microplate reader (iMARK, Bio-Rad). Additionally, the effects of treatments on HUVEC morphology were examined microscopically using a phase-contrast Opta-Tech inverted microscope equipped with OptaView 7 software (Opta-Tech, Warsaw, Poland) for image analysis.

[2] = Non-specific binding in S9 fractions of mouse liver, kidney and pancreas homogenates, rapid equilibrium dialysis; assay type: in vitro ADME; conditions: for fraction unbound at 4 h, 50 μM: pH 7.4, 37 °C, mean ± SD (n = 3); for unbound (free) portion, range over liver, kidney and pancreas: range over the studied mouse tissues
Experimental: The unbound fractions of FA, D1, and D2 were determined in the S9 subcellular fractions of the mouse liver, kidneys, and pancreas using rapid equilibrium dialysis (RED) plates (Thermo Fisher Scientific, Inc., Waltham, MA, USA). Briefly, the studied compounds were spiked at a 50 μM concentration into 100 μL of mouse homogenate S9 subcellular fraction and transferred to the reaction chamber. Homogenate dilutions were 1:4 (w/v) for the liver and kidney, and 1:20 (w/v) for the pancreas. A total of 350 μL of TBS (pH 7.4) buffer was added to the buffer chamber of the RED plate. The dialysis plate was incubated at 37 °C with shaking for 4 h. Samples of 50 μL were collected from both the reaction and buffer chambers, and equal amounts of buffer and S9 fraction were added to the collected samples, respectively, to yield identical sample matrices. The proteins were precipitated by diluting samples with 100 μL of ice-cold acetonitrile. Samples were centrifuged at 12 000 × g for 10 min, and the supernatants were collected for HPLC analysis.
The unbound fraction (fu,tissue) of the FA and its derivatives was calculated using eq 1 [drawing 1] 1 where D is the dilution factor of studied tissue homogenate, and fu,homogenate is the distribution ratio of the studied compound measured in the reaction and buffer chambers within the equilibrium dialysis assay.[29]

[3] = HUVEC viability, WST-1 assay; assay type: cell-based, human; conditions: human, HUVEC cells; WST-1, 24 h, % of control, mean ± SD (n = 6–8)
Experimental: as §1

[4] = mice, cited from earlier work; for AUCtotal plasma of released FA / AUCu, plasma of released FA / Cmax, u plasma of released FA: FA released from the dosed derivative; for AUCtotal plasma of released FA / AUCu, plasma of released FA / Cmax, u plasma of released FA / tmax plasma / Cmax / AUCu, plasma / Cmax, u plasma: 25 μmol/kg i.p.; for AUCtotal plasma: 25 μmol/kg i.p. bolus; for peak concentration in plasma: after a high bolus dose (25 μmol/kg i.p.); for Cmax: read-out: Cmax plasma; for AUCu, plasma / Cmax, u plasma: unbound
[5] = S9 subcellular fraction of kidney homogenate, mouse kidney S9, 50 μM, read-out: fu, kidney (%)
[6] = S9 subcellular fraction of liver homogenate, mouse liver S9, 50 μM, read-out: fu, liver (%)
[7] = S9 subcellular fraction of pancreas homogenate, mouse pancreas S9, 50 μM, read-out: fu, pancreas (%)

Row | SMILES | HUVEC morphology at 100 μM [1] | HUVEC morphology at 25–50 μM [1] | fraction unbound at 4 h, 50 μM [2, 5] | fraction unbound at 4 h, 50 μM [2, 6] | fraction unbound at 4 h, 50 μM [2, 7] | unbound (free) portion, range over liver, kidney and pancreas [2] | viability at 24 h, 50 µM [3] | viability at 24 h, 100 µM [3] | AUCtotal plasma of released FA [4] | AUCu, plasma of released FA [4] | Cmax, u plasma of released FA [4] | AUCtotal plasma [4] | tmax plasma [4] | peak concentration in plasma [4] | Cmax [4] | AUCu, plasma [4] | Cmax, u plasma [4] | HUVEC morphology at 50 μM [1]
1 | COc1cc(C=CC(=O)NCc2cccc(CC(N)C(=O)O)c2)ccc1O (stereo not shown) [derivative 1] | slightly more rounded, bright dead cells were observed | did not cause significant changes in HUVEC morphology | 0.469 ± 0.0593 | 0.425 ± 0.0544 | 0.28 ± 0.0147 | 28.02–46.85% | 89 ± 7.27% | 80.7 ± 4.26% | 507 nmol·min/mL | 54 nmol·min/mL | 0.3 µM | 1042 nmol·min/mL | 10 min | 41.9 µM | 41.9 µM | 262 nmol·min/mL | 10.5 µM | –
2 | COc1cc(/C=C/C(=O)Nc2cccc(C[C@H](N)C(=O)O)c2)ccc1O [derivative 2] | reduced the number of viable cells and cell density as well as caused an irregular shape with cytoplasm leakage | – | 0.305 ± 0.0063 | 0.236 ± 0.0109 | 0.15 ± 0.0206 | 15.01–30.52% | 73.5 ± 14.7% | 60.3 ± 16.9% | 75 nmol·min/mL | 8 nmol·min/mL | 0.2 µM | 463 nmol·min/mL | 10 (released 10) min | – | 21.1 µM | 40 nmol·min/mL | 1.8 µM | first brighter cells appearing
3 | COc1cc(C=CC(=O)O)ccc1O [ferulic acid, 4-hydroxy-3-methoxycinnamic acid] | more elongated cells were seen | did not change cell morphology | 0.991 ± 0.105 | 0.849 ± 0.145 | 0.993 ± 0.0196 | 84.94–99.30% | – | 62.6 ± 15% | – | – | – | 591 nmol·min/mL | 10 min | 33.2 µM | 33.2 µM | 63 nmol·min/mL | 3.6 µM | –

— paper PMC9644403, “L-type Amino Acid Transporter 1 Utilizing Ferulic Acid Derivatives Show Increased Drug Delivery in the Mouse Pancreas Along with Decreased Lipid Peroxidation and Prostaglandin Production” (Molecular Pharmaceutics, 2022)
